Results on 3 compounds are retold here after ChEMBL document CHEMBL5634186, “Structure-Activity Relationship Study of Biselyngbyolide B Reveals Mitochondrial Fission-Induced Cytotoxicity in Cancer” (ACS Med Chem Lett, 2024).

As a reminder, the IC50 is the concentration that gives 50% inhibition.

Structures are written as SMILES.

One data set relates to HCT-116. The experiment in a line: Anticancer activity against human HCT-116 cells assessed as inhibition of cell viability incubated for 16 hrs by MTT assay. In kind it is functional, cell-based. The conditions noted are these: HCT-116, 16 h.
Data set [1] is described as follows: Cytotoxicity against HEK293 cells assessed as reduction in cell viability incubated for 16 hrs by MTT assay. In kind it is toxicity, cell-based. The conditions noted are these: human. In general terms: Tetrazolium dyes change colour on reduction, which living cells bring about.

Take `CO[C@H]1C/C=C/[C@@H](O)CC(=O)O[C@@H](c2ccc(C)cc2)C/C=C/C=C/C[C@H](C)/C=C/1C`: the IC50 with HCT-116 came to 7.8 µM. Moreover, the IC50 at 16 h in data set [1] worked out at 16.5 µM.
The like results for `C/C=C/C/C(C)=C\[C@H]1C/C=C/C=C/C[C@H](C)/C=C(\C)[C@@H](OC)C/C=C/CCC(=O)O1` were, in that order, 15.6 µM and 15.2 µM.
With `C/C=C/C/C(C)=C\[C@H]1C/C=C/C=C/C[C@H](C)/C=C(\C)[C@@H](O)C/C=C/[C@@H](O)CC(=O)O1`, the IC50 with HCT-116 was 6.9 µM. Further, in data set [1], the half-maximal inhibitory concentration (IC50) at 16 h was determined as 21.6 µM.
